Assay [1] deals with T1, AAC(6′)-Ib (Klebsiella pneumoniae, UniProt P19650). In words: AAC. It is filed as biochemical. The settings on record: for inhibition of the acetylation of kanamycin A: 100 μM compound, 18 μM kanamycin A, 50 μM acetyl CoA, 10% DMSO.
In assay [2] the target is T1, AAC(6′)-Ib. In words: AAC. The format is biochemical. The settings on record: Lineweaver-Burk plots; for mode of inhibition with respect to acetyl CoA: variable acetyl CoA; for mode of inhibition with respect to kanamycin A: variable kanamycin A.

T1 sequence (P19650 whole entry): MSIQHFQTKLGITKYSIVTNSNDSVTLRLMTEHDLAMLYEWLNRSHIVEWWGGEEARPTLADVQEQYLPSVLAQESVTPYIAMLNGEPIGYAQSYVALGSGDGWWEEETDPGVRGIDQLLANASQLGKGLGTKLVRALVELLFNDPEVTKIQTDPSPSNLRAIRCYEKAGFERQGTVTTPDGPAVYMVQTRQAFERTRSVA

For `O=C(O)c1ccccc1-c1ccc(C=C2C(=O)N(c3ccccc3)C(=S)N(c3ccccc3)C2=O)o1` [Compound 2, 2-{5-[(4,6-dioxo-1,3-diphenyl-2-thioxotetrahydro-5(2H)-pyrimidinylidene)methyl]-2-furyl}benzoic acid], the “inhibition of the acetylation of kanamycin A” value (shortened to “inhibition … of kanamycin A”) on AAC(6′)-Ib [1] is “significant inhibition”. Further, at AAC(6′)-Ib [2], the “mode of inhibition with respect to acetyl CoA” value was “noncompetitive” and the “mode of inhibition with respect to kanamycin A” value is “competitive”.

For the molecule `Cc1cccc(N2C(=O)/C(=C/c3ccccc3OCc3ccc(C(=O)O)cc3)C(=O)NC2=S)c1` [Compound 1, 4-[(2-{[1-(3-methylphenyl)-4,6-dioxo-2-thioxotetrahydro-5(2H)-pyrimidinylidene]methyl}phenoxy)methyl]benzoic acid], on AAC(6′)-Ib [1], the “inhibition … of kanamycin A” value is “modest inhibition”. Moreover, at AAC(6′)-Ib [2], the “mode of inhibition with respect to acetyl CoA” value is “noncompetitive” and the “mode of inhibition with respect to kanamycin A” value is given as “competitive”.

As to `O=C1C(=Cc2ccco2)C(=O)N(c2ccccc2)C(=S)N1c1ccccc1` [Compound 2c], the “inhibition … of kanamycin A” value against AAC(6′)-Ib [1] is given as “lack of activity”.

Turning to `O=C1NC(=O)N(c2ccc(Cl)cc2)C(=O)/C1=C\c1ccco1` [Compound 2b, 1-(4-chlorophenyl)-5-(2-furylmethylene)-2,4,6(1H,3H,5H)-pyrimidinetrione], the “inhibition … of kanamycin A” value at AAC(6′)-Ib [1] is “weaker inhibition”.

Consider `O=C1C(=Cc2ccco2)C(=O)N(c2ccccc2)C(=O)N1c1ccccc1` [Compound 2d], for which the “inhibition … of kanamycin A” value against AAC(6′)-Ib [1] is given as “lack of activity”.

`O=C1/C(=C/c2ccco2)C(=O)N(c2ccc(Br)cc2)C(=S)N1c1ccccc1` [Compound 5309471]: at AAC(6′)-Ib [1] (0.01% Triton X-100, to rule out non-specific protein aggregation), the “inhibitory activity in the presence of 0.01% Triton X-100” value is on record as “did not show the same level of inhibitory activity”.

These data come from publication PMC3821527 (Bioorganic & medicinal chemistry letters, 2013).
